Our source for the IC50 values is patent US12187723B2 (BRISTOL-MYERS SQUIBB COMPANY, priority 2019, dated 2025).

For orientation: IC50 means the concentration that inhibits the measured activity by half. Higher therefore signals weaker potency in that assay.

The test has as its target T1, human TLR7 (Homo sapiens, UniProt Q9NYK1).
T1 construct: host or cells: HEK-Blue cells
T1 sequence (Q9NYK1 27-1049): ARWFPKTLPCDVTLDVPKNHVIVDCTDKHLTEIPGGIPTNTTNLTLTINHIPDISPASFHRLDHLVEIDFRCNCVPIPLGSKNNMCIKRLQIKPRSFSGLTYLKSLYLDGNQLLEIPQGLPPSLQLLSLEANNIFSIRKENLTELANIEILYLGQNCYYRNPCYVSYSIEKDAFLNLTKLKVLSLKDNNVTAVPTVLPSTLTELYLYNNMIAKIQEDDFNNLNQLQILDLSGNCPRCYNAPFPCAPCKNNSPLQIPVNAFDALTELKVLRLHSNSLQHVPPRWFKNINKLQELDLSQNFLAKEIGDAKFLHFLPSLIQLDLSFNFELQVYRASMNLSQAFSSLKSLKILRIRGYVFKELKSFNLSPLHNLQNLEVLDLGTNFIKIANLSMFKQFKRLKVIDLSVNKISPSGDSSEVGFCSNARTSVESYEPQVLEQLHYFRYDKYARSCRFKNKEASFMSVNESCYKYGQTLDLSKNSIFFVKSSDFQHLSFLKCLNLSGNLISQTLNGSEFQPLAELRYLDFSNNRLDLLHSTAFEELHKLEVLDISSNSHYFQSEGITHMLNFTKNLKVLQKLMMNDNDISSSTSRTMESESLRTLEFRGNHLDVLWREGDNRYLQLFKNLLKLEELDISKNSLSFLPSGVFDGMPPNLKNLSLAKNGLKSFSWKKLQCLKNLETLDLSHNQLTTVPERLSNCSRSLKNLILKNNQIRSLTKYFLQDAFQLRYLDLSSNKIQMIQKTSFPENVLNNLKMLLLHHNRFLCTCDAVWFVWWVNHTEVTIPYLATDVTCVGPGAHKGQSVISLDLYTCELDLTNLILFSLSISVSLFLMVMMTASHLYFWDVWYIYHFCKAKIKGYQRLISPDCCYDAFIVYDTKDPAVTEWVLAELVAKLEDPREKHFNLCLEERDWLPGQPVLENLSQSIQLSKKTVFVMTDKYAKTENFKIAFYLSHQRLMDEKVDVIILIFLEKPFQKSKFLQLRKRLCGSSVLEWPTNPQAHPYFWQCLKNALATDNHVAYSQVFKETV
Description: TLR7 inhibition reporter assay (HEK-Blue SEAP). The test is classed as cell-based. The note with it: HEK-Blue cells overexpressing human TLR7, gardiquimod 7.5 μM, 22 hour incubation. In short, it runs like this:
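22 h, 37° C, 5% CO2 incubation; compounds 0.05 nM-50 μM final; TLR7 cells 15000/well, TLR8 20,000/well. Readout: SEAP via HEK-Blue Detection medium. % inhibition = signal reduction versus agonist + DMSO wells, referenced to known inhibitor.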
A general note: In a reporter assay the amount or activity of a reporter protein is the signal.
Turning to `COc1cc(-c2cc3[nH]c(=O)n([C@H]4CC[C@@H](NCC5CC5)CC4)c3cc2C)cn2ncnc12` [Example 60, 1-((1s,4s)-4-((cyclopropylmethyl)amino)cyclohexyl)-5-(8-methoxy-[1,2,4]triazolo[1,5-a]pyridin-6-yl)-6-methyl-1,3-dihydro-2H-benzo[d]imidazol-2-one], the half-maximal inhibitory concentration (IC50) amounted to 27.6 nM. In turn, `COc1cc(-c2ccc3c(c2)[nH]c(=O)n3C2CCN(CC3CCOC3)CC2)cn2ncnc12` (centres unmarked) [Example 82, 5-(8-methoxy-[1,2,4]triazolo[1,5-a]pyridin-6-yl)-1-(1-((tetrahydrofuran-3-yl)methyl)piperidin-4-yl)-1,3-dihydro-2H-benzo[d]imidazol-2-one] gave a half-maximal inhibitory concentration (IC50) of 1300 nM. The compound `CCCN1CCC[C@@H](n2c(=O)[nH]c3cc(-c4cc(OC)c5ncnn5c4)c(C)cc32)C1` [Example 54, (R)-5-(8-methoxy-[1,2,4]triazolo[1,5-a]pyridin-6-yl)-6-methyl-1-(1-propylpiperidin-3-yl)-1,3-dihydro-2H-benzo[d]imidazol-2-one] showed an IC50 of 29.2 nM.

In the case of `COc1cc(-c2cc3[nH]c(=O)n([C@@H]4CCCN(C(C)C)C4)c3cc2C)cn2ncnc12` [Example 53, (R)-1-(1-isopropylpiperidin-3-yl)-5-(8-methoxy-[1,2,4]triazolo[1,5-a]pyridin-6-yl)-6-methyl-1,3-dihydro-2H-benzo[d]imidazol-2-one], it took 33 nM to reach half-maximal inhibition (IC50). In the case of `COc1cc(-c2ccc3c(c2)[nH]c(=O)n3C2CCN(C3CCC3)CC2)cn2ncnc12` [Example 83, 1-(1-cyclobutylpiperidin-4-yl)-5-(8-methoxy-[1,2,4]triazolo[1,5-a]pyridin-6-yl)-1,3-dihydro-2H-benzo[d]imidazol-2-one] it was 2480 nM; in that of `COc1cc(-c2cc3[nH]c(=O)n([C@H]4CC[C@@H](N(C)C(C)C)CC4)c3cc2C)cn2ncnc12` [Example 84, 1-((1s,4s)-4-(isopropyl(methyl)amino)cyclohexyl)-5-(8-methoxy-[1,2,4]triazolo[1,5-a]pyridin-6-yl)-6-methyl-1,3-dihydro-2H-benzo[d]imidazol-2-one], 16 nM; in that of `Cc1cc2c(cc1-c1cc(C)c3ncnn3c1)[nH]c(=O)n2[C@@H]1CCCN(CC2CCOC2)C1` (stereo partly drawn) [Example 43, 6-methyl-5-(8-methyl-[1,2,4]triazolo[1,5-a]pyridin-6-yl)-1-((3R)-1-((tetrahydrofuran-3-yl)methyl)piperidin-3-yl)-1,3-dihydro-2H-benzo[d]imidazol-2-one], 88.5 nM. As to `Cc1cc2c(cc1-c1cc(C)c3ncnn3c1)[nH]c(=O)n2[C@@H]1CCCN(CC2CC2)C1` [Example 37, (R)-1-(1-(cyclopropylmethyl)piperidin-3-yl)-6-methyl-5-(8-methyl-[1,2,4]triazolo[1,5-a]pyridin-6-yl)-1,3-dihydro-2H-benzo[d]imidazol-2-one], inhibition was half-maximal at 30.9 nM (IC50).

For the compound `CCC(CC)CN1CCC[C@@H](n2c(=O)[nH]c3cc(-c4cc(OC)c5ncnn5c4)c(C)cc32)C1` [Example 73, (R)-1-(1-(2-ethylbutyl)piperidin-3-yl)-5-(8-methoxy-[1,2,4]triazolo[1,5-a]pyridin-6-yl)-6-methyl-1,3-dihydro-2H-benzo[d]imidazol-2-one], half-maximal inhibition (IC50) was put at 32.4 nM.

The compound `COc1cc(-c2cc3[nH]c(=O)n([C@@H]4CCCN(CC(C)(C)C)C4)c3cc2C)cn2ncnc12` [Example 71, (R)-5-(8-methoxy-[1,2,4]triazolo[1,5-a]pyridin-6-yl)-6-methyl-1-(1-neopentylpiperidin-3-yl)-1,3-dihydro-2H-benzo[d]imidazol-2-one] displayed an IC50 of 22.5 nM. Compound `Cc1cc2c(cc1-c1cc(C)c3ncnn3c1)[nH]c(=O)n2[C@@H]1CCCN(Cc2cccnc2)C1` [Example 46, (R)-6-methyl-5-(8-methyl-[1,2,4]triazolo[1,5-a]pyridin-6-yl)-1-(1-(pyridin-3-ylmethyl)piperidin-3-yl)-1,3-dihydro-2H-benzo[d]imidazol-2-one] displayed an IC50 of 172 nM. Compound `COc1cc(-c2cc3[nH]c(=O)n([C@@H]4CCCN(C5CCC5)C4)c3cc2C)cn2ncnc12` [Example 69, (R)-1-(1-cyclobutylpiperidin-3-yl)-5-(8-methoxy-[1,2,4]triazolo[1,5-a]pyridin-6-yl)-6-methyl-1,3-dihydro-2H-benzo[d]imidazol-2-one] came in with an IC50 of 96.9 nM.

Turning to `Cc1cc2c(cc1-c1cc(C)c3ncnn3c1)[nH]c(=O)n2[C@@H]1CCCN(CCCC(F)(F)F)C1` [Example 39, (R)-6-methyl-5-(8-methyl-[1,2,4]triazolo[1,5-a]pyridin-6-yl)-1-(1-(4,4,4-trifluorobutyl)piperidin-3-yl)-1,3-dihydro-2H-benzo[d]imidazol-2-one], the IC50 amounted to 139 nM. `COc1cc(-c2cc3[nH]c(=O)n(C4CCN(C)CC4)c3cc2C)cn2ncnc12` [Example 1, 5-(8-methoxy-[1,2,4]triazolo[1,5-a]pyridin-6-yl)-6-methyl-1-(1-methylpiperidin-4-yl)-1,3-dihydro-2H-benzo[d]imidazol-2-one] showed an IC50 of 37.9 nM. Consider `Cc1cc2c(cc1-c1cc(C)c3ncnn3c1)[nH]c(=O)n2[C@H]1CC[C@@H](NCC(C)(C)C)CC1` [Example 32, 6-methyl-5-(8-methyl-[1,2,4]triazolo[1,5-a]pyridin-6-yl)-1-((1s,4s)-4-(neopentylamino)cyclohexyl)-1,3-dihydro-2H-benzo[d]imidazol-2-one], for which half-maximal inhibition (IC50) required 20.4 nM. As to `COc1cc(-c2ccc3c(c2)[nH]c(=O)n3C2CCN(C3CCOC3)CC2)cn2ncnc12` (centres unmarked) [Example 81, 5-(8-methoxy-[1,2,4]triazolo[1,5-a]pyridin-6-yl)-1-(1-(tetrahydrofuran-3-yl)piperidin-4-yl)-1,3-dihydro-2H-benzo[d]imidazol-2-one], it took 2640 nM to reach half-maximal inhibition (IC50). `COc1cc(-c2cc3[nH]c(=O)n([C@H]4CC[C@@H](NC5CCOCC5)CC4)c3cc2C)cn2ncnc12` [Example 49, 5-(8-methoxy-[1,2,4]triazolo[1,5-a]pyridin-6-yl)-6-methyl-1-((1s,4s)-4-((tetrahydro-2H-pyran-4-yl)amino)cyclohexyl)-1,3-dihydro-2H-benzo[d]imidazol-2-one] had an IC50 of 18.2 nM. Compound `CCCN[C@H]1CC[C@@H](n2c(=O)[nH]c3cc(-c4cc(OC)c5ncnn5c4)c(C)cc32)CC1` [Example 64, 5-(8-methoxy-[1,2,4]triazolo[1,5-a]pyridin-6-yl)-6-methyl-1-((1s,4s)-4-(propylamino)cyclohexyl)-1,3-dihydro-2H-benzo[d]imidazol-2-one] returned an IC50 of 6.71 nM. For the compound `COc1cc(-c2cc3[nH]c(=O)n([C@H]4CC[C@@H](NCC5CCCCC5)CC4)c3cc2C)cn2ncnc12` [Example 66, 1-((1s,4s)-4-((cyclohexylmethyl)amino)cyclohexyl)-5-(8-methoxy-[1,2,4]triazolo[1,5-a]pyridin-6-yl)-6-methyl-1,3-dihydro-2H-benzo[d]imidazol-2-one], the IC50 was found to be 20.8 nM. In turn, `Cc1cc2c(cc1-c1cc(C)c3ncnn3c1)[nH]c(=O)n2[C@@H]1CCCN(CCC(C)(C)C)C1` [Example 44, (R)-1-(1-(3,3-dimethylbutyl)piperidin-3-yl)-6-methyl-5-(8-methyl-[1,2,4]triazolo[1,5-a]pyridin-6-yl)-1,3-dihydro-2H-benzo[d]imidazol-2-one] yielded an IC50 of 104 nM.
